Source: US12637432B2, “Inhibitors of ACK1/TNK2 tyrosine kinase” (H. LEE MOFFITT CANCER CENTER AND RESEARCH INSTITUTE, INC., priority 2020, dated 2026)

target: T1, ACK1 (Homo sapiens, UniProt Q07912); assay: ACK1 ELISA % inhibition at 100 nM; assay type: biochemical
T1 construct: purchased Reaction Biology
T1 sequence (Q07912 whole entry): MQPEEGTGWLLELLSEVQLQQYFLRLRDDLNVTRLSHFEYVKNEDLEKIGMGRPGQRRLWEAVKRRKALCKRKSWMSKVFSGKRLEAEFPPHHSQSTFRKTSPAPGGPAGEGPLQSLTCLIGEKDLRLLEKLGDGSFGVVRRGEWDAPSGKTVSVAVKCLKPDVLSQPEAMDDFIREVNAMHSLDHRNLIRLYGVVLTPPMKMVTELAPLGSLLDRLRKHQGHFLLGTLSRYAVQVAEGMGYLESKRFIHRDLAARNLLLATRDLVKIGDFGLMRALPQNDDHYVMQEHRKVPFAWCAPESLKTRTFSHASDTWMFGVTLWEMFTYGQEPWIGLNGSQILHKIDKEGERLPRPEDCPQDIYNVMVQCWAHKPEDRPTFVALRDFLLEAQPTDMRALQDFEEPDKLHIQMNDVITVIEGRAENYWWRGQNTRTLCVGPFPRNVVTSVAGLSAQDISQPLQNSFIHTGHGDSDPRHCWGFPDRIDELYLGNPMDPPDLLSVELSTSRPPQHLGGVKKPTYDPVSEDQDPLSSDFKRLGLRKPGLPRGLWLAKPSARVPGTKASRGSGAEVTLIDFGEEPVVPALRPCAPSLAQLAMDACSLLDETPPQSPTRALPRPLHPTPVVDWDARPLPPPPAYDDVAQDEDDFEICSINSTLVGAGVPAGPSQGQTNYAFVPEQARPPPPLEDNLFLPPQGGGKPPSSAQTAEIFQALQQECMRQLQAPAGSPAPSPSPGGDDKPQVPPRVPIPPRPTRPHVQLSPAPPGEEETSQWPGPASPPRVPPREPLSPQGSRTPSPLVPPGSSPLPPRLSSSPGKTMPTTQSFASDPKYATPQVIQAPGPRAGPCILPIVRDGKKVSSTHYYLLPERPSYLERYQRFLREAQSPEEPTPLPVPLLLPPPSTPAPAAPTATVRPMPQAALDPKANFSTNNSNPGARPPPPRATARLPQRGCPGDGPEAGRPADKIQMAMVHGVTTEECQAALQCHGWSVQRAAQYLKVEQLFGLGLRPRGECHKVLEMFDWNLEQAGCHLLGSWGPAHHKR

| Structure (SMILES) | inhibition at 0.1 µM |
| --- | --- |
| COc1cc(N2CCN(C)CC2)ccc1Nc1ncc(Cl)c(NCc2ccc(C(F)(F)F)cc2)n1 [5-chloro-N^2-(2-methoxy-4-(4-methylpiperazin-1-yl)phenyl)-N^4-(4-(trifluoromethyl)benzyl)pyrimidine-2,4-diamine] | 31.1% |
| COc1cc(N2CCN(C)CC2)ccc1Nc1ncc(Cl)c(N[C@@H](C)c2ccc(Cl)cc2)n1 [(S)-5-chloro-N^4-(1-(4-chlorophenyl)ethyl)-N^2-(2-methoxy-4-(4-methylpiperazin-1-yl)phenyl)pyrimidine-2,4-diamine] | 17.5% |

Second part, the compound after the results:

| inhibition at 0.1 µM | Structure (SMILES) |
| --- | --- |
| 38.5% | COc1cc(N2CCN(C)CC2)ccc1Nc1ncc(Cl)c(N(CCc2ccccc2)CC2CCCO2)n1 (stereo not shown) [5-chloro-N^2-(2-methoxy-4-(4-methylpiperazin-1-yl)phenyl)-N^4-phenethyl-N^4-((tetrahydrofuran-2-yl)methyl)pyrimidine-2,4-diamine] |
| 32% | CN1CCN(c2ccc(Nc3ncc(Cl)c(N(CCc4ccccc4)CC4CCCO4)n3)cc2)CC1 (stereo not shown) [5-chloro-N^2-(4-(4-methylpiperazin-1-yl)phenyl)-N^4-phenethyl-N^4-((tetrahydrofuran-2-yl)methyl)pyrimidine-2,4-diamine] |
| 50.2% | COc1cc(N2CCN(C)CC2)ccc1Nc1ncc(Cl)c(N[C@H](C)c2ccc(Cl)cc2)n1 [(R)-5-chloro-N^4-(1-(4-chlorophenyl)ethyl)-N^2-(2-methoxy-4-(4-methylpiperazin-1-yl)phenyl)pyrimidine-2,4-diamine] |
| 98.7% | COc1cc(N2CCN(C)CC2)ccc1Nc1ncc(C)c(Nc2ccc(Cl)c(NS(=O)(=O)C(C)(C)C)c2)n1 [N-(2-chloro-5-((2-((2-methoxy-4-(4-methylpiperazin-1-yl)phenyl)amino)-5-methylpyrimidin-4-yl)amino)phenyl)-2-methylpropane-2-sulfonamide] |
| 100% | COc1cc(N2CCN(C)CC2)ccc1Nc1ncc(C)c(Nc2cccc(NS(=O)(=O)C(C)(C)C)c2)n1 [N-(3-((2-((2-methoxy-4-(4-methylpiperazin-1-yl)phenyl)amino)-5-methylpyrimidin-4-yl)amino)phenyl)-2-methylpropane-2-sulfonamide] |

target: T1, ACK1; assay: ACK1 IC50 (Table 1, assay not specified); assay type: biochemical

| Structure (SMILES) | IC50 |
| --- | --- |
| OCCn1cc(-c2ccc(Nc3ncc(Cl)c(NC[C@H]4CCCO4)n3)cc2F)cn1 [(R)-2-(4-(4-((5-chloro-4-(((tetrahydrofuran-2-yl)methyl)amino)pyrimidin-2-yl)amino)-2-fluorophenyl)-1H-pyrazol-1-yl)ethan-1-ol] | 46.1 nM |
| COCCn1cc(-c2ccc(Nc3ncc(Cl)c(NC[C@H]4CCCO4)n3)cc2F)cn1 [(R)-5-chloro-N^2-(3-fluoro-4-(1-(2-methoxyethyl)-1H-pyrazol-4-yl)phenyl)-N^4-((tetrahydrofuran-2-yl)methyl)pyrimidine-2,4-diamine] | 137 nM |
| Fc1cc(Nc2ncc(Cl)c(NC[C@H]3CCCO3)n2)ccc1-c1cnn(C2CCOCC2)c1 [(R)-5-chloro-N^2-(3-fluoro-4-(1-(tetrahydro-2H-pyran-4-yl)-1H-pyrazol-4-yl)phenyl)-N^4-((tetrahydrofuran-2-yl)methyl)pyrimidine-2,4-diamine] | 78.7 nM |
| Fc1cc(Nc2ncc(Cl)c(NC[C@H]3CCCO3)n2)ccc1OCCN1CCCC1 [(R)-5-chloro-N^2-(3-fluoro-4-(2-(pyrrolidin-1-yl)ethoxy)phenyl)-N^4-((tetrahydrofuran-2-yl)methyl)pyrimidine-2,4-diamine] | 60.1 nM |
| Clc1cnc(Nc2ccc(OCCN3CCCC3)cc2)nc1NC[C@H]1CCCO1 [(R)-5-chloro-N^2-(4-(2-(pyrrolidin-1-yl)ethoxy)phenyl)-N^4-((tetrahydrofuran-2-yl)methyl)pyrimidine-2,4-diamine] | 56.5 nM |

target: T1, ACK1; assay: Reaction Biology 33P Hotspot assay; assay type: biochemical

| Structure (SMILES) | IC50 |
| --- | --- |
| CN1CCC(n2cc(Nc3ncc(Cl)c(NCC4CCOCC4)n3)cn2)CC1 [5-chloro-N^2-(1-(1-methylpiperidin-4-yl)-1H-pyrazol-4-yl)-N^4-((tetrahydro-2H-pyran-4-yl)methyl)pyrimidine-2,4-diamine] | 138 nM |
| Cn1cc(Nc2ncc(Cl)c(NCC3CCOCC3)n2)cn1 [5-chloro-N^2-(1-methyl-1H-pyrazol-4-yl)-N^4-((tetrahydro-2H-pyran-4-yl)methyl)pyrimidine-2,4-diamine] | 84 nM |
| CC(C)Oc1cc(-c2cnn(C)c2)ccc1Nc1ncc(Cl)c(NCC2CCOCC2)n1 [5-chloro-N^2-(2-isopropoxy-4-(1-methyl-1H-pyrazol-4-yl)phenyl)-N^4-((tetrahydro-2H-pyran-4-yl)methyl)pyrimidine-2,4-diamine] | 232 nM |
| COc1cc(-c2cnn(C)c2)ccc1Nc1ncc(Cl)c(NCC2CCOCC2)n1 [5-chloro-N^2-(2-methoxy-4-(1-methyl-1H-pyrazol-4-yl)phenyl)-N^4-((tetrahydro-2H-pyran-4-yl)methyl)pyrimidine-2,4-diamine] | 38.1 nM |
| Cn1cc(-c2ccc(Nc3ncc(Cl)c(NCC4CCOCC4)n3)cc2F)cn1 [5-chloro-N^2-(3-fluoro-4-(1-methyl-1H-pyrazol-4-yl)phenyl)-N^4-((tetrahydro-2H-pyran-4-yl)methyl)pyrimidine-2,4-diamine] | 31 nM |
| CC(C)Oc1cc(Nc2ncc(Cl)c(NCC3CCOCC3)n2)ccc1-c1cnn(C)c1 [5-chloro-N^2-(3-isopropoxy-4-(1-methyl-1H-pyrazol-4-yl)phenyl)-N^4-((tetrahydro-2H-pyran-4-yl)methyl)pyrimidine-2,4-diamine] | 23.6 nM |
| COc1cc(Nc2ncc(Cl)c(NCC3CCOCC3)n2)ccc1-c1cnn(C)c1 [5-chloro-N^2-(3-methoxy-4-(1-methyl-1H-pyrazol-4-yl)phenyl)-N^4-((tetrahydro-2H-pyran-4-yl)methyl)pyrimidine-2,4-diamine] | 27.6 nM |
| CN1CCN(Cc2ccc(Nc3ncc(Cl)c(NCC4CCOCC4)n3)cc2)CC1 [5-chloro-N^2-(4-((4-methylpiperazin-1-yl)methyl)phenyl)-N^4-((tetrahydro-2H-pyran-4-yl)methyl)pyrimidine-2,4-diamine] | 69.1 nM |
| Clc1cnc(Nc2ccc(OCC3CCOCC3)cc2)nc1NCC1CCOCC1 [5-chloro-N^2-(4-((tetrahydro-2H-pyran-4-yl)methoxy)phenyl)-N^4-((tetrahydro-2H-pyran-4-yl)methyl)pyrimidine-2,4-diamine] | 46 nM |
| CC(C)Oc1cc(Nc2ncc(Cl)c(N[C@H](C)C3CCOCC3)n2)ccc1N1CCN(C)CC1 [(R)-5-chloro-N^2-(3-isopropoxy-4-(4-methylpiperazin-1-yl)phenyl)-N^4-(1-(tetrahydro-2H-pyran-4-yl)ethyl)pyrimidine-2,4-diamine] | 37 nM |
| Cn1cc(-c2ccc(Nc3ncc(Cl)c(NC[C@H]4CCCO4)n3)cc2)cn1 [(R)-5-chloro-N^2-(4-(1-methyl-1H-pyrazol-4-yl)phenyl)-N^4-((tetrahydrofuran-2-yl)methyl)pyrimidine-2,4-diamine] | 128 nM |
| Clc1cnc(Nc2ccc(OCC3CCOCC3)cc2)nc1NC[C@H]1CCCO1 [(R)-5-chloro-N^2-(4-((tetrahydro-2H-pyran-4-yl)methoxy)phenyl)-N^4-((tetrahydrofuran-2-yl)methyl)pyrimidine-2,4-diamine] | 69 nM |
| COc1cc(N2CCN(C)CC2)ccc1Nc1ncc(C)c(NCC2CCOCC2)n1 [N^2-(2-methoxy-4-(4-methylpiperazin-1-yl)phenyl)-5-methyl-N^4-((tetrahydro-2H-pyran-4-yl)methyl)pyrimidine-2,4-diamine] | 34.5 nM |
| Cc1cnc(Nc2cc(F)c(C3CCN(C)CC3)c(F)c2)nc1Nc1ccc(Cl)c(OCC(C)C)c1 [N^4-(4-chloro-3-isobutoxyphenyl)-N^2-(3,5-difluoro-4-(1-methylpiperidin-4-yl)phenyl)-5-methylpyrimidine-2,4-diamine] | 181 nM |

The remaining lines, values ahead:

| IC50 | Structure (SMILES) |
| --- | --- |
| 55.3 nM | CN1CCN(c2ccc(Nc3ncc(Cl)c(NCC4CCOCC4)n3)c(O)c2)CC1 [2-((5-chloro-4-(((tetrahydro-2H-pyran-4-yl)methyl)amino)pyrimidin-2-yl)amino)-5-(4-methylpiperazin-1-yl)phenol] |
| 90 nM | Clc1cnc(Nc2cnn(C3CCOCC3)c2)nc1NCC1CCOCC1 [5-chloro-N^2-(1-(tetrahydro-2H-pyran-4-yl)-1H-pyrazol-4-yl)-N^4-((tetrahydro-2H-pyran-4-yl)methyl)pyrimidine-2,4-diamine] |
| 34.9 nM | COc1cc(-n2cccn2)ccc1Nc1ncc(Cl)c(NCC2CCOCC2)n1 [5-chloro-N^2-(2-methoxy-4-(1H-pyrazol-1-yl)phenyl)-N^4-((tetrahydro-2H-pyran-4-yl)methyl)pyrimidine-2,4-diamine] |
| 64.6 nM | COc1cc(-n2cccn2)ccc1Nc1ncc(Cl)c(NC[C@H]2CCCO2)n1 [(R)-5-chloro-N^2-(2-methoxy-4-(1H-pyrazol-1-yl)phenyl)-N^4-((tetrahydrofuran-2-yl)methyl)pyrimidine-2,4-diamine] |
| 40.8 nM | CC(C)Oc1cc(Nc2ncc(Cl)c(N[C@H](C)C3CCOCC3)n2)ccc1C1CCN(C)CC1 [(R)-5-chloro-N^2-(3-isopropoxy-4-(1-methylpiperidin-4-yl)phenyl)-N^4-(1-(tetrahydro-2H-pyran-4-yl)ethyl)pyrimidine-2,4-diamine] |
| 352 nM | CC[C@@H](Nc1nc(Nc2ccc(C3CCN(C)CC3)c(OC(C)C)c2)ncc1Cl)C1CCOCC1 [(R)-5-chloro-N^2-(3-isopropoxy-4-(1-methylpiperidin-4-yl)phenyl)-N^4-(1-(tetrahydro-2H-pyran-4-yl)propyl)pyrimidine-2,4-diamine] |
| 40.4 nM | COc1cc(Nc2ncc(Cl)c(NC[C@H]3CCCO3)n2)ccc1-c1cnn(C)c1 [(R)-5-chloro-N^2-(3-methoxy-4-(1-methyl-1H-pyrazol-4-yl)phenyl)-N^4-((tetrahydrofuran-2-yl)methyl)pyrimidine-2,4-diamine] |
| 14.7 nM | COc1cc(N2CCN(C)CC2)c(F)cc1Nc1ncc(C)c(NCC2CCOCC2)n1 [N^2-(5-fluoro-2-methoxy-4-(4-methylpiperazin-1-yl)phenyl)-5-methyl-N^4-((tetrahydro-2H-pyran-4-yl)methyl)pyrimidine-2,4-diamine] |
